In US20140275169A1, “Combination Therapies for Enhancing Protein Degradation” (The Regents of the University of Michigan, priority 2013, published 2014):

Assays:
Usp14 = Usp14 (Homo sapiens, UniProt P54578); assay: Inhibition of Usp14 (statement in overview); format: biochemical
endogenous total tau = assay: Degradation of endogenous total tau in primary cortical rat neurons, SDS-PAGE immunoblot with tau-5 antibody; format: cell-based; conditions: 24 hours, individual compounds (lanes 2 and 3) and combination (lane 4)
Procedure: These independently duplicated experiments were carried out in primary cortical rat neurons for 24 hours. Tau was detected after SDS-PAGE immunoblot analysis, using the tau-5 antibody.
The combined effect of Usp14 inhibitors and Hsp70 inhibitors on tau levels is shown to be synergistic in this experiment in that this effect (lane 4) is greater than the sum of the individual effects of these compounds (lanes 2 and 3). To cite one example, in FIG. 5A the individual effects are approximately 8% and 2% for Usp14 and Hsp70 inhibitors, respectively, while the combined effect is approximately 71%, far greater than the expected additive effect of approximately 10%.
This experiment was carried out in primary cortical rat neurons for 48 hours. Tau was detected after SDS-PAGE immunoblot analysis, using the tau-5 antibody.
This experiment was carried out in primary cortical rat neurons for 24 hours. Tau was detected after SDS-PAGE immunoblot analysis, using the tau-5 antibody.

Usp14, sequence (P54578 whole entry, species assumed): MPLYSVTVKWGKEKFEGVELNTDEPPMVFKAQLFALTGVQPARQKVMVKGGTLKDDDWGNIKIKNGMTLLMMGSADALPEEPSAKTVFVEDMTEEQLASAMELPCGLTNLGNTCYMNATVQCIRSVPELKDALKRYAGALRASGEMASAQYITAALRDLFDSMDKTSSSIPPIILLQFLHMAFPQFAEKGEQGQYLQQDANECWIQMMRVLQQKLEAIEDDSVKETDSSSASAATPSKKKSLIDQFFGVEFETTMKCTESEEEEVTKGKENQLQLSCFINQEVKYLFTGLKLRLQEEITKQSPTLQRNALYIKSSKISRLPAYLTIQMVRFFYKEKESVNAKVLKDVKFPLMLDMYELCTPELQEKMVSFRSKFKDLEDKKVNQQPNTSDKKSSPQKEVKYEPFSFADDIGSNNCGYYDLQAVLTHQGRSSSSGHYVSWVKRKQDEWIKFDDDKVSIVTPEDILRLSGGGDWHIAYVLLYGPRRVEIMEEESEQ

| Compound | Usp14 inhibition, qualitative (Usp14) | effect on tau levels (FIG. 5A) (endogenous total tau) |
| --- | --- | --- |
| Cc1cc(C(=O)CN2CCCC2)c(C)n1-c1ccc(F)cc1 [IU1, 1-(1-(4-fluorophenyl)-2,5-dimethyl-1H-pyrrol-3-yl)-2-(pyrrolidin-1-yl)ethanone] | inhibitor of Usp14 |  |
| Cc1cc(C(=O)CN2CCCCC2)c(C)n1-c1ccc(Cl)cc1 [IU1-47] | more potent variant of IU1 | approximately 8% |
